# Assay: In vivo MTN recovery in mouse urine after single i.v. dose (Example 17)
# [1] = Elapsed Time 2.5 hr, 0.281 mg MTN i.v.
# Description: NAC-MTN or MTN alone was administered intravenously to mice via the tail vein. […] After 2 hours, NAC-MTN or MTN was detected in urine, quantified by absorbance at 665 nm, and reported as % of total.
# Procedure. […] White mice, n=2 were tail vein injected with 0.25 ml of either NAC-MTN or MTN alone. […] MTN was quantified in mouse urine by absorbance of 0.2 ml sample at 665 nm, and converted to mg/ml using an MTN standard curve.
# To determine if NAC-MTN was excreted in urine as a complex, MTN fluorescence due to unbound NAC was assayed by an addition method. DNA was added to urine from both groups and subsequent change in fluorescence was measured.
structure (smiles),measurement,setting,value
"O=C1c2c(O)ccc(O)c2C(=O)c2c(NCCNCCO)ccc(NCCNCCO)c21 [MTN, mitoxantrone]",FLUOR. (mouse urine),[1],4086
same,MTN % recov. in urine (% of total dose),[1],1.9%
same,FLUOR. (mouse urine),Elapsed Time 5 hr,4405
same,MTN % recov. in urine (% of total dose),Elapsed Time 5 hr,1.6%
same,FLUOR. (mouse urine),Elapsed Time 8 hr,4455
same,MTN % recov. in urine (% of total dose),Elapsed Time 8 hr,3.8%
